Laboratory results published in patent publication US20110136762A1, “FUNGICIDAL PYRIDAZINES” (E.I. Du Pont de Nemours and Company, priority 2008, published 2011).
Marks after values point to notes of the source that are not given here.

What was measured:
Type in all cases: in vivo
Erysiphe graminis = assay: Test A: wheat powdery mildew, preventive spray on wheat seedlings, visual disease rating; conditions: 100 = 100% disease control, 0 = no disease control relative to controls; for pest or weed control at 40 ppm / pest or weed control at 200 ppm: Blumeria graminis, 192 h
Summary of the method: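 Seedlings were sprayed to run-off with test suspension at 200 ppm (500 g/ha), or 40 ppm where marked. They were dust-inoculated with spores the next day and kept 8 days at 20 °C. Disease was then rated visually.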

[1] = tested on: Puccinia recondita f. sp. tritici; assay: Test B: wheat leaf rust, preventive spray on wheat seedlings, visual disease rating; conditions: 100 = 100% disease control, 0 = no disease control relative to controls; for pest or weed control at 40 ppm / pest or weed control at 200 ppm: 192 h
Summary of the method: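 Seedlings were sprayed to run-off at 200 ppm (500 g/ha), or at 40 ppm where marked *, then inoculated with spores the next day. Plants were held at saturated humidity at 20° C for 24 h and then in a growth chamber at 20° C for 7 days before visual disease rating.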

Septoria tritici = assay: Test C: wheat leaf blotch, preventive spray on wheat seedlings, visual disease rating; conditions: 100 = 100% disease control, 0 = no disease control relative to controls; for pest or weed control at 40 ppm / pest or weed control at 200 ppm: Zymoseptoria tritici, 504 h
Summary of the method: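 Wheat seedlings were sprayed to run-off with test suspension at 200 ppm (500 g/ha), or at 40 ppm where marked *. They were inoculated with spores the next day and held in saturated atmosphere at 20° C for 48 h. After a further 19 days in a growth chamber at 20° C, disease was rated visually.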

Septoria nodorum = assay: Test D: wheat glume blotch, preventive spray on wheat seedlings, visual disease rating; conditions: 100 = 100% disease control, 0 = no disease control relative to controls; for pest or weed control at 40 ppm / pest or weed control at 200 ppm: Parastagonospora nodorum
Summary of the method: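 Wheat seedlings sprayed to run-off with compound at 200 ppm (500 g/ha), or 40 ppm where marked, then inoculated with Septoria nodorum spores the next day. Held 48 h in saturated atmosphere at 20° C, then 7 days in a growth chamber at 20° C before visual disease rating.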

Alternaria solani = assay: Test E: tomato early blight, preventive spray on tomato seedlings, visual disease rating; conditions: 100 = 100% disease control, 0 = no disease control relative to controls; for pest or weed control at 40 ppm / pest or weed control at 200 ppm: Alternaria solani
Summary of the method: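 Tomato seedlings sprayed to run-off with test suspension at 200 ppm (equivalent to 500 g/ha), or 40 ppm where marked "*", as a preventive treatment before A. solani challenge. Disease then rated visually.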

Botrytis cinerea = assay: Test F: tomato Botrytis, preventive spray on tomato seedlings, visual disease rating; conditions: 100 = 100% disease control, 0 = no disease control relative to controls; for pest or weed control at 40 ppm / pest or weed control at 200 ppm: Botrytis cinerea
Summary of the method: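 Preventive test: tomato seedlings sprayed to run-off at 200 ppm (500 g/ha) or, where marked *, 40 ppm, then inoculated next day with B. cinerea spores. Kept 48 h at saturated humidity and 20° C, then 3 days at 24° C. Disease assessed visually.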

## COc1cc(OC)cc(-c2c(-c3ccccc3F)nnc(Cl)c2-c2c(F)cc(F)c([Si](C)(C)C)c2F)c1 [Compound 38, 3-chloro-5-(3,5-dimethoxyphenyl)-6-(2-fluorophenyl)-4-[2,4,6-trifluoro-3-(trimethylsilyl)phenyl]pyridazine]
Erysiphe graminis; 40 ppm (marked *)
  pest or weed control at 40 ppm: 0%
[1]; 40 ppm (marked *)
  pest or weed control at 40 ppm: 98%
Septoria tritici; 40 ppm (marked *)
  pest or weed control at 40 ppm: 94%
Septoria nodorum; 40 ppm (marked *)
  pest or weed control at 40 ppm: 0%
Alternaria solani; 40 ppm (marked *)
  pest or weed control at 40 ppm: 26%
Botrytis cinerea; 40 ppm (marked *)
  pest or weed control at 40 ppm: 99%

## COc1cc(OC)cc(-c2c(-c3ccc(F)cc3F)cnnc2-c2ccccc2F)c1 [Compound 16]
Erysiphe graminis; 200 ppm
  Test A rating (disease control, wheat powdery mildew): 0%
[1]; 200 ppm
  Test B rating (disease control, wheat leaf rust): 96%
Septoria tritici; 200 ppm
  Test C rating (disease control, wheat leaf blotch): 70%
Septoria nodorum; 200 ppm
  Test D rating (disease control, wheat glume blotch): 0%
Alternaria solani; 200 ppm
  Test E rating (disease control, tomato early blight): 0%
Botrytis cinerea; 200 ppm
  Test F rating (disease control, tomato Botrytis): 99%

## COc1cc(OC)cc(-c2c(-c3ccccc3)nnc(C)c2-c2ccccc2)c1 [Compound 3]
Erysiphe graminis; 200 ppm
  Test A rating (disease control, wheat powdery mildew): 52%
[1]; 200 ppm
  Test B rating (disease control, wheat leaf rust): 86%
Septoria tritici; 200 ppm
  Test C rating (disease control, wheat leaf blotch): 87%
Septoria nodorum; 200 ppm
  Test D rating (disease control, wheat glume blotch): 0%
Alternaria solani; 200 ppm
  Test E rating (disease control, tomato early blight): 0%
Botrytis cinerea; 200 ppm
  Test F rating (disease control, tomato Botrytis): 52%

## COc1cc(-c2c(-c3ccccc3F)nnc(C)c2-c2c(F)cc(F)cc2F)cc(OC)c1Cl [Compound 33]
Erysiphe graminis; 40 ppm (marked *)
  Test A rating (disease control, wheat powdery mildew): 0* %
[1]; 40 ppm (marked *)
  Test B rating (disease control, wheat leaf rust): 97* %
Septoria tritici; 40 ppm (marked *)
  Test C rating (disease control, wheat leaf blotch): 95* %
Septoria nodorum; 40 ppm (marked *)
  Test D rating (disease control, wheat glume blotch): 0* %
Alternaria solani; 40 ppm (marked *)
  Test E rating (disease control, tomato early blight): 61* %
Botrytis cinerea; 40 ppm (marked *)
  Test F rating (disease control, tomato Botrytis): 99* %

## COc1cc(OC)c(Br)c(-c2c(-c3ccccc3F)nnc(C)c2-c2c(F)cc(F)cc2F)c1 [Compound 32]
Erysiphe graminis; 40 ppm (marked *)
  Test A rating (disease control, wheat powdery mildew): 90* %
[1]; 40 ppm (marked *)
  Test B rating (disease control, wheat leaf rust): 100* %
Septoria tritici; 40 ppm (marked *)
  Test C rating (disease control, wheat leaf blotch): 98* %
Septoria nodorum; 40 ppm (marked *)
  Test D rating (disease control, wheat glume blotch): 99* %
Alternaria solani; 40 ppm (marked *)
  Test E rating (disease control, tomato early blight): 99* %
Botrytis cinerea; 40 ppm (marked *)
  Test F rating (disease control, tomato Botrytis): 100* %

## COc1ccc(-c2c(C)nnc(-c3ccccc3F)c2-c2cc(OC)cc(OC)c2)cc1 [Compound 8, 4-(3,5-dimethoxyphenyl)-3-(2-fluorophenyl)-5-(4-methoxyphenyl)-6-methylpyridazine]
Erysiphe graminis; 200 ppm
  pest or weed control at 200 ppm: 97%
[1]; 200 ppm
  pest or weed control at 200 ppm: 100%
Septoria tritici; 200 ppm
  pest or weed control at 200 ppm: 100%
Septoria nodorum; 200 ppm
  pest or weed control at 200 ppm: 95%
Alternaria solani; 200 ppm
  pest or weed control at 200 ppm: 99%
Botrytis cinerea; 200 ppm
  pest or weed control at 200 ppm: 98%

## COc1cc(OC)cc(-c2c(-c3ccccc3)nnc(C)c2-c2c(F)cc(OC)cc2F)c1 [Compound 37, 5-(2,6-difluoro-4-methoxyphenyl)-4-(3,5-dimethoxyphenyl)-6-methyl-3-phenylpyridazine]
Erysiphe graminis; 40 ppm (marked *)
  pest or weed control at 40 ppm: 69%
[1]; 40 ppm (marked *)
  pest or weed control at 40 ppm: 100%
Septoria tritici; 40 ppm (marked *)
  pest or weed control at 40 ppm: 98%
Septoria nodorum; 40 ppm (marked *)
  pest or weed control at 40 ppm: 99%
Alternaria solani; 40 ppm (marked *)
  pest or weed control at 40 ppm: 99%
Botrytis cinerea; 40 ppm (marked *)
  pest or weed control at 40 ppm: 99%

## COc1cc(OC)cc(-c2c(-c3ccccc3)nnc(CCl)c2-c2ccc(F)cc2)c1 [Compound 14, 3-(chloromethyl)-5-(3,5-dimethoxyphenyl)-4-(4-fluorophenyl)-6-phenylpyridazine]
Erysiphe graminis; 200 ppm
  pest or weed control at 200 ppm: 11%
[1]; 200 ppm
  pest or weed control at 200 ppm: 91%
Septoria tritici; 200 ppm
  pest or weed control at 200 ppm: 77%
Septoria nodorum; 200 ppm
  pest or weed control at 200 ppm: 0%
Alternaria solani; 200 ppm
  pest or weed control at 200 ppm: 0%
Botrytis cinerea; 200 ppm
  pest or weed control at 200 ppm: 99%

## C=C(C)c1nnc(C)c(-c2ccc(F)cc2F)c1-c1cc(OC)cc(OC)c1 [Compound 20]
Erysiphe graminis; 200 ppm
  Test A rating (disease control, wheat powdery mildew): 96%
[1]; 200 ppm
  Test B rating (disease control, wheat leaf rust): 100%
Septoria tritici; 200 ppm
  Test C rating (disease control, wheat leaf blotch): 96%
Septoria nodorum; 200 ppm
  Test D rating (disease control, wheat glume blotch): 0%
Alternaria solani; 200 ppm
  Test E rating (disease control, tomato early blight): 100%
Botrytis cinerea; 200 ppm
  Test F rating (disease control, tomato Botrytis): 99%
